Test results: patent US20250340569A1, “INHIBITORS OF KIF18A AND USES THEREOF” (Insilico Medicine IP Limited, priority 2023, published 2025)

These compounds were tested on OVCAR-3 (assay: OVCAR3 CTG assay). Conditions: CellTiter-Glo, 6 days incubation.
Assay type: cell-based
Description: Example B2: OVCAR3 CTG Assay
• a) Preparation of complete medium: Added FBS and appropriate additives according to the information sheet provided by the vendor. Mix gently. • b) Checked the cell name and complete medium and passage number marked on the flask. For adherent cell lines, refer to c to k. For suspension cell lines, refer to g to k. • c) Removed and discarded culture medium using a vacuum pump. • d) Briefly rinsed the cell layer with 0.25% (w/v) Trypsin-0.038% (w/v) EDTA solution to remove all traces of serum that contains trypsin inhibitor. • e) Added 3.0 ml of Trypsin-EDTA solution to flask and observed cells under an inverted microscope until cell layer is dispersed. • f) Added 9.0 ml of complete growth medium and aspirated cells by gently pipetting. • g) Transfered the cell suspension to a centrifuge tube and centrifuged at 1000 rpm for 4 minutes. • h) Discarded the supernatant using a vacuum pump. • i) Added appropriate volume of complete medium. Suspended the cell pellet by gently pipetting. • j) Counted the cell numbers with Vi-cell XR and adjusted cells to appropriate density. • k) Added 190 μL of cell suspension to 96-well opaque-walled clear bottom plates according to the planned plate layout and placed the plates in the CO2 incubator overnight.
2) Compound Stock Preparation:
• a) Plate preparation of testing articles:
The compounds were dissolved in DMSO to prepare 10 mM stock solution. The start working concentration (2 mM) was prepared with DMSO.
b) Staurosporine Plate Preparation:
0.4 mM Staurosporine was prepared in DMSO at working concentration.
The 20× compound containing medium was prepared according to the plate map. 10 μL of 20× compound containing medium was added into each well of the assay plates. Centrifuged at 1000 rpm for 1 minute. The total dilution was 200-fold.
3) Cells were Incubated with the Compounds for 6 Days at 5% CO2, 37° C.
Assay Measurement for CTG Assay
1) Preparation of Reagents
• a) Thawed the CellTiter-Glo buffer and equilibrated to room temperature prior to use. • b) Equilibrated the lyophilized CellTiter-Glo substrate to room temperature prior to use. • c) Transfered the appropriate volume of CellTiter-Glo buffer into the amber bottle containing CellTiter-Glo substrate to reconstitute the lyophilized enzyme/substrate mixture. This formed the CellTiter-Glo reagent. • d) Mixed by gently vortexing, swirling or by inverting the contents to obtain a homogeneous solution. The CellTiter-Glo substrate went into solution easily in less than one minute.
• a) Observed the cell morphology under an inverted microscope after corresponding treatment. • b) Equilibrated the plate and its contents to room temperature for approximately 30 minutes. • c) Added 100 μL of CellTiter-Glo reagent to the assay plate by Multidrop Combi instrument. • d) Mixed contents for 10 minutes on an orbital shaker to induce cell lysis. • e) Allowed the plate to incubate at room temperature for 10 minutes to stabilize luminescent signal. • f) Pasted the clear bottom with white back seal and record luminescence with Envision. The settings should be: Luminescence, measurement time 0.1 s.

IC50 [µM] | SMILES
0.01 to 0.1 | Cc1cc2nc(n1)NC1CC(C1)OCC1(C(F)(F)F)CCN(CC1)c1cc(NS(=O)(=O)CCO)ccc1C(=O)N2 [EX54]

Same assay, conditions: Homo sapiens, OVCAR-3, 144 h; CellTiter-Glo, 6 days incubation

SMILES | IC50 [µM]
C[C@H]1CCCC2(C(F)F)CCN(CC2)c2cc(NS(=O)(=O)CCO)ccc2C(=O)Nc2cccc(n2)NC1 [EX102-B] | < 0.01
C[C@@H]1CCCC2(C(F)(F)F)CCN(CC2)c2cc(NS(=O)(=O)CCO)ccc2C(=O)Nc2cccc(n2)NC1 [EX79-A] | 0.01 to 0.1
Cc1cc2nc(n1)NC[C@H](C(F)(F)F)COCC1(C)CCN(CC1)c1cc(NS(=O)(=O)CCO)ccc1C(=O)N2 [EX32-A] | 0.01 to 0.1
CCS(=O)(=O)Nc1cc2c(cn1)C(=O)Nc1cccc(n1)NC[C@H](C)CCCC1(C(F)(F)F)CCN2CC1 [EX101-A] | 0.01 to 0.1
C[C@@H]1CCCC2(C(F)(F)F)CCN(CC2)c2cc(NS(=O)(=O)CCO)c(F)cc2C(=O)Nc2cccc(n2)NC1 [EX105-A] | < 0.01
Cc1cc2nc(n1)N1CCO[C@@H](COCC3(C(F)(F)F)CCN(CC3)c3cc(NS(=O)(=O)CCO)ccc3C(=O)N2)C1 (stereo in doubt) [EX96-B] | 0.01 to 0.1
C[C@@H]1CCOCC2(C(F)(F)F)CCN(CC2)c2cc(NS(=O)(=O)CCO)ccc2C(=O)Nc2cccc(n2)N1 [EX107-A] | 0.1 to 1
CO[C@@H]1CNc2cccc(n2)NC(=O)c2ccc(NS(=O)(=O)CCO)cc2N2CCC(C(F)(F)F)(CC2)COC1 [EX78-A] | 0.01 to 0.1
Cc1cc2nc(n1)N1CCO[C@H](COCC3(C(F)(F)F)CCN(CC3)c3cc(NS(=O)(=O)CCO)ccc3C(=O)N2)C1 [EX96-A] | < 0.01
C[C@H]1CCOCC2(C(F)(F)F)CCN(CC2)c2cc(NS(=O)(=O)CCO)ccc2C(=O)Nc2cccc(n2)N1 [EX107-B] | 0.01 to 0.1
Cc1cc2nc(n1)N1CCC(F)(F)[C@H](CCCC3(C)CCN(CC3)c3cc(NS(=O)(=O)CCO)ccc3C(=O)N2)C1 [EX115-A] | 0.1 to 1
CCS(=O)(=O)Nc1cc2c(cn1)C(=O)Nc1cccc(n1)NC[C@@H](C)CCCC1(C(F)(F)F)CCN2CC1 [EX101-B] | < 0.01
O=C1Nc2cccc(n2)N2CCO[C@H](COCC3(C(F)(F)F)CCN(CC3)c3cc(NS(=O)(=O)CCO)ncc31)C2 [EX92-A] | 0.01 to 0.1
C[C@@H]1CCCC2(C(F)(F)F)CCN(CC2)c2cc(NS(=O)(=O)CCO)ncc2C(=O)Nc2cccc(n2)NC1 [EX100-A] | 0.01 to 0.1
C[C@H]1C/C=C/C2(C(F)(F)F)CCN(CC2)c2cc(NS(=O)(=O)CCO)ccc2C(=O)Nc2cccc(n2)NC1 [EX85-B] | < 0.01
C[C@@H]1COCC2(C(F)(F)F)CCN(CC2)c2cc(NS(=O)(=O)CCO)ccc2C(=O)Nc2cccc(n2)CO1 [EX84-B] | 0.01 to 0.1
CCS(=O)(=O)Nc1ccc2c(c1)N1CCC(C(F)(F)F)(CC1)COC[C@H](C)CNc1cccc(n1)NC2=O [EX88-B] | < 0.01
O=C1Nc2cccc(n2)N2CCO[C@H](COCC3(C(F)(F)F)CCN(CC3)c3cc(NS(=O)(=O)CCO)ccc31)C2 [EX81-B] | 0.01 to 0.1
C[C@H]1CNc2nc(ccc2F)NC(=O)c2ccc(NS(=O)(=O)CCO)cc2N2CCC(C(F)(F)F)(CC2)COC1 [EX76-A] | < 0.01

The next lines start with the values.

IC50 [µM] | SMILES
0.01 to 0.1 | CN1CCCCCC2(C(F)(F)F)CCN(CC2)c2cc(NS(=O)(=O)CCO)ccc2C(=O)Nc2ccnc1n2 [EX90]
1 to 10 | CN1CCC2(C(F)(F)F)CCN(CC2)c2cc(NS(=O)(=O)CCO)ccc2C(=O)Nc2cccc(n2)NCC1=O [EX80]
0.01 to 0.1 | O=C1Nc2cccc(n2)NCC(F)(F)COCC2(C(F)(F)F)CCN(CC2)c2cc(NS(=O)(=O)CCO)ccc21 [EX109]
0.01 to 0.1 | [2H]C([2H])([2H])N1CCCOCC2(C(F)(F)F)CCN(CC2)c2cc(S(=O)(=O)NCCO)ccc2C(=O)Nc2cccc1n2 [EX70]
0.01 to 0.1 | CN1CCCCCC2(C(F)(F)F)CCN(CC2)c2cc(NS(=O)(=O)CCO)ncc2C(=O)Nc2cccc1n2 [EX89]
0.1 to 1 | Cc1cc2nc(n1)N(C)CCCOCC1(C3CC3)CCN(CC1)c1cc(NS(=O)(=O)CCO)ccc1C(=O)N2 [EX41]
0.01 to 0.1 | [2H]C([2H])([2H])N1CCCCCC2(C(F)(F)F)CCN(CC2)c2cc(NS(=O)(=O)CCO)ccc2C(=O)Nc2cccc1n2 [EX60]
0.1 to 1 | CN1CC(F)(F)COCC2(C(F)(F)F)CCN(CC2)c2cc(NS(=O)(=O)CCO)ccc2C(=O)Nc2cccc1n2 [EX108]
0.01 to 0.1 | CCS(=O)(=O)Nc1cc2c(cn1)C(=O)Nc1cccc(n1)N(C)CCCOCC1(C(F)(F)F)CCN2CC1 [EX97]
0.01 to 0.1 | CN1CCC/C=C/C2(C(F)(F)F)CCN(CC2)c2cc(NS(=O)(=O)CCO)ccc2C(=O)Nc2ccnc1n2 [EX91]
0.1 to 1 | CN1CCCOCC2(C(F)(F)F)CCN(CC2)c2cc(NS(=O)(=O)CCO)ccc2C(=O)Nc2cc(Cl)cc1n2 [EX99]
0.01 to 0.1 | Cc1cc2nc(n1)NC/C=C\COCC1(C(F)(F)F)CCN(CC1)c1cc(NS(=O)(=O)CCO)ccc1C(=O)N2 [EX51]
0.01 to 0.1 | Cc1cc2nc(n1)NCC(F)(F)COCC1(C)CCN(CC1)c1cc(NS(=O)(=O)CCO)ccc1C(=O)N2 [EX28]
1 to 10 | Cc1cc2nc(n1)NC/C=C/COCC1(C(F)(F)F)CCP(=O)(CC1)c1cc(NS(=O)(=O)CCO)ccc1C(=O)N2 [EX52]
0.01 to 0.1 | Cc1cc2nc(n1)N(C)CCCOCC1(C(F)(F)F)CCN(CC1)c1cc(S(=O)(=O)NC(C)(C)C)ccc1C(=O)N2 [EX30]
0.1 to 1 | CN1CCCOCC2(C(F)(F)F)CCN(CC2)c2cc(NS(=O)(=O)CCO)ccc2C(=O)Nc2cc(Cl)nc1n2 [EX94]

IC50 [µM] | SMILES
0.1 to 1 | O=C1Nc2ccc(=O)n(n2)CCCCCC2(C(F)(F)F)CCN(CC2)c2cc(NS(=O)(=O)CCO)ccc21 [EX65]
0.01 to 0.1 | CC1CNc2cccc(n2)NC(=O)c2ccc(NS(=O)(=O)CCO)cc2N2CCC(C(F)(F)F)(CC2)COC1 (stereo not drawn) [EX56]
< 0.01 | O=C1Nc2cccc(n2)NCCCCCC2(C(F)(F)F)CCN(CC2)c2cc(NS(=O)(=O)CCO)ccc21 [EX103]
0.01 to 0.1 | CC12CCN(CC1)c1cc(NS(=O)(=O)CCO)ccc1C(=O)Nc1cc(C(F)(F)F)nc(n1)NCCCOC2 [EX39]
0.01 to 0.1 | [2H]C([2H])([2H])N1CCCOCC2(C(F)(F)F)CCN(CC2)c2cc(NS(=O)(=O)CCO)ccc2C(=O)Nc2ccc(F)c1n2 [EX61]
0.01 to 0.1 | [2H]C([2H])([2H])N1CCCOCC2(C(F)(F)F)CCN(CC2)c2cc(NS(=O)(=O)CCO)ccc2C(=O)Nc2cc(C)nc1n2 [EX44]
0.1 to 1 | CN1CCCOCC2(C(F)(F)F)CCN(CC2)c2cc(NS(=O)(=O)CCO)ccc2C(=O)Nc2cncc1n2 [EX75]
0.01 to 0.1 | O=C1Nc2cccc(n2)NCCC/C=C/C2(C(F)(F)F)CCN(CC2)c2cc(NS(=O)(=O)CCO)ccc21 [EX83]
0.01 to 0.1 | CC12CCN(CC1)c1cc(S(=O)(=O)NC(C)(C)C)ccc1C(=O)Nc1cccc(n1)OCCCOC2 [EX07]
0.01 to 0.1 | CN1CCCOCC2(C(F)(F)F)CCN(CC2)c2cc(NS(=O)(=O)CCO)ccc2C(=O)Nc2cccc1n2 [EX62]
0.01 to 0.1 | CN1CCCOCC2(C(F)F)CCN(CC2)c2cc(NS(=O)(=O)CCO)ccc2C(=O)Nc2ccnc1n2 [EX95]
0.1 to 1 | CCS(=O)(=O)Nc1cc2c(cn1)C(=O)Nc1cccc(n1)N(C)CCCCCC1(C(F)(F)F)CCN2CC1 [EX98]
0.01 to 0.1 | Cc1cc2nc(n1)NCC(C)COCC1(C#N)CCN(CC1)c1cc(NS(=O)(=O)CCO)ccc1C(=O)N2 (stereo not drawn) [EX42]
0.01 to 0.1 | O=C1Nc2ccc(=O)n(n2)CCCCCCC2(C(F)(F)F)CCN(CC2)c2cc(NS(=O)(=O)CCO)ccc21 [EX64]
0.1 to 1 | Cc1cc2nc(n1)NCCCOCC1(C)CCN(CC1)c1nc(NC(C)(C)CO)ccc1C(=O)N2 [EX29]
